Publication PMC11249646, “Small-Molecule Disruptors of the Interaction between Calcium- and Integrin-Binding Protein 1 and Integrin αIIbβ3 as Novel Antiplatelet Agents” (ACS Pharmacology & Translational Science, 2024)
Read-outs that look alike come from different tables or passages of the source.

Target: T1, CIB1 and αIIb interaction (CIB1-GST : F-αIIb peptide) (Homo sapiens, UniProt Q99828)
T1 construct: made in house; host or cells: BL-21 plus RIL cells (E. coli)
T1 sequence (Q99828 1-191): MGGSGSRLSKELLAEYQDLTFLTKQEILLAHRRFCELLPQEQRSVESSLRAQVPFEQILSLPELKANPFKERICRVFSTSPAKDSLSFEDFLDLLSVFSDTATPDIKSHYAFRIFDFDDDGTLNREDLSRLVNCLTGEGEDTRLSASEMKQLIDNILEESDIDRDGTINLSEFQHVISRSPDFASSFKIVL
Assay: FP assay, 1536-well qHTS format (primary and confirmatory screen)
Type: binding
Conditions: for Efficacy (%): negative = inhibition; for Curve Class: negative sign = inhibitory curve; for IC50: read-out: IC50

[1] = qHTS primary screen hits, Table S2
[2] = qHTS primary screen hits, Table S2, several classes where COUNT > 1
[3] = qHTS primary screen of LOPAC/NPACT libraries

| SMILES | Efficacy (%) [1] [%] | Curve Class [2] | IC50 [1] [µM] | further results |
| --- | --- | --- | --- | --- |
| O=C(O)C(F)(F)F.O=S(=O)(Nc1ccc(C2CCNCC2)cc1)c1ccc(NCc2ccc(Br)cc2O)cc1 [NCGC00343916-01] | -31 | -2.4 | 56.2 | – |
| COc1cccc(CNc2ccc(S(=O)(=O)Nc3ccc(C4CCNCC4)cc3)cc2)c1O.O=C(O)C(F)(F)F [NCGC00343917-01] | -46 | – | 50.1 | Curve Class [1]: -2.4 |
| COc1cc2c(cc1OC)-c1[nH]nc(Nc3cccc(F)c3)c1C2 [NCGC00343986-02] | – | – | – | Efficacy (%) [3]: -25%; Curve Class [3]: -2.4; IC50 [3]: 63.1 µM |
| O=C(Nc1nc(-c2ccccc2)cs1)c1ccncc1NS(=O)(=O)c1ccc(Cl)cc1.O=C(O)C(F)(F)F [NCGC00344892-01] | -48 | – | 53.2 | – |
| O=C(Nc1nc(-c2ccccc2)cs1)c1ccncc1NS(=O)(=O)c1ccccc1.O=C(O)C(F)(F)F [NCGC00344903-01] | -44 | -2.2 | 44.7 | – |
| Cc1cccc(S(=O)(=O)Nc2cnccc2C(=O)Nc2nc(-c3ccccc3)cs2)c1.O=C(O)C(F)(F)F [NCGC00344904-01] | -43 | -2.4 | 56.2 | – |
| COc1cccc(S(=O)(=O)Nc2cnccc2C(=O)Nc2nc(-c3ccccc3)cs2)c1.O=C(O)C(F)(F)F [NCGC00344906-01] | -33 | -2.2 | 50.1 | – |
| O=C(Nc1nc(-c2ccccc2)cs1)c1ccncc1NS(=O)(=O)c1ccc(F)cc1.O=C(O)C(F)(F)F [NCGC00344931-02] | -38 | – | 53.2 | – |
| O=C(Nc1nc(-c2ccccc2)cs1)c1ccncc1NS(=O)(=O)c1ccc(F)c(F)c1.O=C(O)C(F)(F)F [NCGC00344933-01] | -34 | -3 | 79.4 | – |
| N#Cc1ccc(S(=O)(=O)Nc2cnccc2C(=O)Nc2nc(-c3ccccc3)cs2)cc1.O=C(O)C(F)(F)F [NCGC00344937-01] | -38 | – | 79.4 | Curve Class [1]: -2.4 |
| O=C(Nc1nc(-c2ccccc2)cs1)c1ccncc1NS(=O)(=O)c1ccccc1Cl.O=C(O)C(F)(F)F [NCGC00344943-02] | -50 | – | 64.8 | – |
| Cc1cc(S(=O)(=O)Nc2cnccc2C(=O)Nc2nc(-c3ccccc3)cs2)c(C)o1.O=C(O)C(F)(F)F [NCGC00345029-02] | – | – | – | Efficacy (%) (qHTS FP screen hits, Table S2): -46%; IC50 (qHTS FP screen hits, Table S2): 38.1 µM |
| O=C(Nc1nc(-c2ccccc2)cs1)c1ccncc1NS(=O)(=O)c1ccc(F)cc1Cl.O=C(O)C(F)(F)F [NCGC00345105-01] | -42 | -2.2 | 79.4 | – |
| Fc1cc(Nc2nc(-c3ccncc3)nc3ccccc23)ccc1N1CCNCC1.O=C(O)C(F)(F)F [NCGC00345204-01] | -36 | -2.4 | 89.1 | – |
| CC1(C)CCC(CN2CCN(c3ccc(C(=O)NS(=O)(=O)c4ccc(NCC5CCOCC5)c([N+](=O)[O-])c4)c(Oc4cnc5[nH]ccc5c4)c3)CC2)=C(c2ccc(Cl)cc2)C1 [NCGC00345789-10] | – | – | – | Efficacy (%) [3]: -26%; Curve Class [3]: -2.4; IC50 [3]: 39.8 µM |
| COc1cc2c(cc1OC)CN(CCc1ccc(NC(=O)c3cc(OC)c(OC)cc3NC(=O)c3cnc4ccccc4c3)cc1)CC2 [NCGC00346448-01] | -30 | -2.4 | 42.9 | – |
| Cc1cc(N2CCOCC2)cc2[nH]c(-c3c(NC[C@@H](O)c4cccc(Cl)c4)cc[nH]c3=O)nc12 [NCGC00346460-05] | – | – | – | Efficacy (%) [3]: -28%; Curve Class [3]: -1.4; IC50 [3]: 17.8 µM |
| C=CC(=O)Nc1cccc(Oc2nc(Nc3ccc(N4CCN(C)CC4)cc3)ncc2Cl)c1 [NCGC00346496-04] | – | – | – | Efficacy (%) [3]: -28%; Curve Class [3]: -2.4; IC50 [3]: 44.7 µM |
| C=CC(=O)Nc1cccc(Sc2nc(Nc3ccc(N4CCN(C)CC4)cc3)ncc2Cl)c1 [NCGC00346497-02] | – | – | – | Efficacy (%) [3]: -29%; Curve Class [3]: -2.4; IC50 [3]: 20 µM |
| C=C1C(=O)[C@@]23C(CC[C@@H]1[C@H]2O)[C@@]12CO[C@]3(O)[C@@H](O)[C@@H]1C(C)(C)CC[C@@H]2O (stereo partly drawn) [NCGC00346595-01] | – | – | – | Efficacy (%) (qHTS FP screen hits, Table S2): -48%; IC50 (qHTS FP screen hits, Table S2): 33.3 µM |
| CC(C)(O)CC(=O)NCCn1ccc2ncnc(Nc3ccc(Oc4cccc(C(F)(F)F)c4)c(Cl)c3)c21 [NCGC00346699-06] | – | – | – | Efficacy (%) [3]: -30%; Curve Class [3]: -2.4; IC50 [3]: 100 µM |
| COc1cccc(CNc2ccc(S(=O)(=O)Nc3nc(-c4ccccc4)cs3)cc2)c1O.O=C(O)C(F)(F)F [NCGC00346865-01] | -34 | – | 50.1 | Curve Class [1]: -2.4 |

| SMILES | Efficacy (%) [1] [%] | Curve Class [2] | IC50 [1] [µM] | further results |
| --- | --- | --- | --- | --- |
| Cc1c(-c2cccc3c(CCCOc4cccc5ccccc45)c(C(=O)O)n(Cc4cccnc4)c23)c(COc2ccc(N3CCN(S(=O)(=O)N(C)C)CC3)cc2)nn1C [NCGC00347282-01] | -34 | -3 | 30.4 | – |
| Cc1cc(OCCCc2c(C(=O)O)n(Cc3cccnc3)c3c(-c4c(COc5ccc(N6CCN(S(C)(=O)=O)CC6)cc5)nn(C)c4C)cccc23)cc(C)c1Cl [NCGC00347283-01] | -26 | – | 34.1 | Curve Class [1]: -2.4 |
| COc1ccc(OC)c(-n2c3c(cc(-c4nnn(-c5ccc(Cl)cc5)n4)c2=O)C(=O)CC(C)(C)C3)c1.O=C(O)C(F)(F)F [NCGC00347300-01] | -41 | – | 89.1 | Curve Class [1]: -3 |
| CC(=O)O[C@@H](CO[C@@H]1O[C@H](CO)[C@H](O)[C@H](O)[C@H]1O)[C@]1(C)C=C2CC[C@@H]3C(C)(C)[C@@H](O)CC[C@@]3(C)[C@@H]2CC1 [NCGC00347395-02] | – | – | – | Efficacy (%) [3]: -23%; Curve Class [3]: -2.4; IC50 [3]: 15.8 µM |
| Cc1c(C)n(Cc2ccc(-c3ccccc3C(=O)O)cc2)c2ccc(C(=O)N[C@@H](C)c3ccc([N+](=O)[O-])cc3)cc12 [NCGC00347955-01] | – | – | – | Efficacy (%) (qHTS FP screen hits, Table S2): -32%; IC50 (qHTS FP screen hits, Table S2): 23.5 µM |
| O=C(Nc1ccc(S(=O)(=O)N2CCOCC2)cc1)c1ccc(N2CCc3ccccc3C2)cc1 [NCGC00348032-01] | -34 | -2.4 | 50.1 | – |
| O=C(Nc1ccc(S(=O)(=O)N2CCOCC2)cc1)c1ccc(CN2CCCc3ccccc32)cc1.O=C(O)C(F)(F)F [NCGC00348355-01] | -15 | -2.4 | 50.1 | – |
| CCC(C)(C)n1nnnc1C(c1cc2ccc(OC)cc2[nH]c1=O)N1CCc2ccccc2C1.O=C(O)C(F)(F)F (stereo not drawn) [NCGC00350929-01] | -29 | -2.4 | 56.2 | – |
| CC1=C(C(=O)Nc2ccc(C(=O)O)cc2)C(c2ccccc2Cl)N=C(Nc2nc3ccccc3o2)N1.O=C(O)C(F)(F)F (stereo not drawn) [NCGC00351025-01] | -29 | -2.4 | 50.1 | – |
| O=C(O)C(F)(F)F.O=C(c1ccc2ccccc2c1)c1no[n+]([O-])c1C(=O)c1ccc2ccccc2c1 [NCGC00351316-01] | -35 | – | 44.7 | Curve Class [1]: -2.2 |
| C#CCOC(=O)NCCCC[C@H](N)C(=O)O [NCGC00351539-01] | -24 | -2.4 | 56.2 | – |
| Cc1ccccc1C(=O)N1CCc2cc(-c3nc(NC(=O)Cc4cccc(OCCOCCOCCN)c4)sc3C)ccc21.O=C(O)C(F)(F)F [NCGC00351617-01] | -37 | -2.4 | 50.1 | – |
| CCCCn1nc(-c2ccccc2)c2nc3ccccc3nc21.O=C(O)C(F)(F)F [NCGC00351644-02] | -127 | -1.1 | 25.1 | – |
| O=C(O)C(F)(F)F.O=C(O)c1csc(-n2nc(-c3ccc(F)c(Cc4ccccc4)c3)cc2O)n1 [NCGC00356005-01] | -47 | -2.2 | 79.4 | – |
| CCOC(=O)OC(C)OC(=O)c1csc(-n2nc(-c3ccc(F)c(F)c3)cc2O)n1.O=C(O)C(F)(F)F (stereo not drawn) [NCGC00356024-01] | -35 | -2.4 | 79.4 | – |
| O=C(O)C(F)(F)F.OC(CN1CCCCC1)Cn1c2ccc(Cl)cc2c2cc(Cl)ccc21 (stereo not drawn) [NCGC00356030-01] | -35 | – | 79.4 | Curve Class [1]: -3 |
| Cn1ccc(=Nc2ccc(NC(=O)c3ccc(/N=c4/ccn(C)c5ccc([N+](=O)[O-])cc45)cc3)cc2)cc1.O=C(O)C(F)(F)F [NCGC00356208-01] | -35 | -2.4 | 56.2 | – |
| Cl.O=C(O)c1csc(-n2nc(-c3ccc(F)c(F)c3)c(Cc3ccccc3)c2O)n1 [NCGC00356264-02] | -25 | -2.4 | 79.4 | – |
| Cl.NS(=O)(=O)c1cccc(Cc2c(-c3ccc(F)c(F)c3)nn(-c3nc(C(=O)O)cs3)c2O)c1 [NCGC00356269-01] | -17 | -2.4 | 50.1 | – |
| CC(C)(C)OC(=O)c1csc(-n2nc(-c3ccc(F)c(F)c3)c(-c3ccccc3)c2O)n1.O=C(O)C(F)(F)F [NCGC00356364-01] | -24 | – | 56.2 | Curve Class [1]: -2.4 |
| CCOC(=O)c1csc(-n2nc(-c3ccc(F)c(F)c3)cc2O)n1 [NCGC00356457-01] | -29 | – | 56.2 | Curve Class [1]: -2.4 |
| Nc1ccc2nc3c(=O)n(CCc4ccccc4)c(=O)[nH]c3nc2c1.O=C(O)C(F)(F)F [NCGC00356558-01] | -62 | -1.2 | 5 | – |
